Measurements reported in the supplement of paper PMC13386468.

Experiments:
Assay in all cases: IC50 for competition of protein binding to Kinobeads
Details in all cases: assay detail: Kinobeads competition in P. falciparum blood-stage lysate
A0A146LZZ4 = target: A0A146LZZ4
UniProt C0H4K8 = target: UniProt C0H4K8
UniProt C0H4S5 = target: UniProt C0H4S5
UniProt C0H4S8 = target: UniProt C0H4S8
UniProt C0H5J6 = target: UniProt C0H5J6
UniProt C6KSR5 = target: UniProt C6KSR5
UniProt C6KSY6 = target: UniProt C6KSY6
UniProt C6KTA4 = target: UniProt C6KTA4
UniProt O77361 = target: UniProt O77361
UniProt O77390 = target: UniProt O77390
UniProt O96278 = target: UniProt O96278
UniProt P27362 = target: UniProt P27362
Chain of UniProt P27362 (P27362 whole entry): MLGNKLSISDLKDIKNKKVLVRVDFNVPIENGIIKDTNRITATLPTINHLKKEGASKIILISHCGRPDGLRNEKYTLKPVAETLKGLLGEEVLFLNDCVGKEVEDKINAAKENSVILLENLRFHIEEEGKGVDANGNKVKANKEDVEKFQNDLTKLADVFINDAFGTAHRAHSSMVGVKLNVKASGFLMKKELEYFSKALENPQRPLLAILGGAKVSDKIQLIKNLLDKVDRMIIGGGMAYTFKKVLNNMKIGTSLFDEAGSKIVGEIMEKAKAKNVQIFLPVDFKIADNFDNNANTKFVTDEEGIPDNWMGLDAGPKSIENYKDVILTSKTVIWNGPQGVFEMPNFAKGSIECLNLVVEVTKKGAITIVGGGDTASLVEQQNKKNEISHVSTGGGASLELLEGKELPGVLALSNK

UniProt Q76NM6 = target: UniProt Q76NM6
Chain of UniProt Q76NM6 (Q76NM6 whole entry): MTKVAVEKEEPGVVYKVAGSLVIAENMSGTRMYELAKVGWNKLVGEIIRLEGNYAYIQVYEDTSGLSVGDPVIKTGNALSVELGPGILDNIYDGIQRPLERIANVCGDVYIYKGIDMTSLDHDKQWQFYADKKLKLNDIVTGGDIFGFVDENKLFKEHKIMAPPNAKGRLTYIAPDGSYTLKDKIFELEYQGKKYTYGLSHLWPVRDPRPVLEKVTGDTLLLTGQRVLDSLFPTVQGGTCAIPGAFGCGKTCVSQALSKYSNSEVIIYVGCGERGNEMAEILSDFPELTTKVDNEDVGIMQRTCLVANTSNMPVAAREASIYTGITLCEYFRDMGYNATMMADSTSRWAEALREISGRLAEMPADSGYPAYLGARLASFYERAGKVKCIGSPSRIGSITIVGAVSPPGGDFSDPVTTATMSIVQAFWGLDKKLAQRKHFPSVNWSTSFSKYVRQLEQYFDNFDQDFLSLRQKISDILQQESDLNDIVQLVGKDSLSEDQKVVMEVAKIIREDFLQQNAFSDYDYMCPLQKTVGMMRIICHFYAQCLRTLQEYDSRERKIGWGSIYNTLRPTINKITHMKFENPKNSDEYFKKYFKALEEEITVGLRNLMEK

UniProt Q7KQL9 = target: UniProt Q7KQL9
Chain of UniProt Q7KQL9 (Q7KQL9 whole entry): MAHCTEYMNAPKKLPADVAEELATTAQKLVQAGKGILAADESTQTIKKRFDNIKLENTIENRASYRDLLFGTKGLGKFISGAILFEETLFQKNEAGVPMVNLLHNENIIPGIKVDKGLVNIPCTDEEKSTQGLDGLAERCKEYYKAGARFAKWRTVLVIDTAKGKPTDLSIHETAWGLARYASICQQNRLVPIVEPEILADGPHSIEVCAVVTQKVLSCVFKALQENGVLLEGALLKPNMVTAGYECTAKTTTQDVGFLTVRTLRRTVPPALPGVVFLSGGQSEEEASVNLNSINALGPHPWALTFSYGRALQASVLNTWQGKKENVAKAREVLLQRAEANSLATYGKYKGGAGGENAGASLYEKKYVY

UniProt Q8I249 = target: UniProt Q8I249
UniProt Q8I266 = target: UniProt Q8I266
Chain of UniProt Q8I266 (Q8I266 whole entry): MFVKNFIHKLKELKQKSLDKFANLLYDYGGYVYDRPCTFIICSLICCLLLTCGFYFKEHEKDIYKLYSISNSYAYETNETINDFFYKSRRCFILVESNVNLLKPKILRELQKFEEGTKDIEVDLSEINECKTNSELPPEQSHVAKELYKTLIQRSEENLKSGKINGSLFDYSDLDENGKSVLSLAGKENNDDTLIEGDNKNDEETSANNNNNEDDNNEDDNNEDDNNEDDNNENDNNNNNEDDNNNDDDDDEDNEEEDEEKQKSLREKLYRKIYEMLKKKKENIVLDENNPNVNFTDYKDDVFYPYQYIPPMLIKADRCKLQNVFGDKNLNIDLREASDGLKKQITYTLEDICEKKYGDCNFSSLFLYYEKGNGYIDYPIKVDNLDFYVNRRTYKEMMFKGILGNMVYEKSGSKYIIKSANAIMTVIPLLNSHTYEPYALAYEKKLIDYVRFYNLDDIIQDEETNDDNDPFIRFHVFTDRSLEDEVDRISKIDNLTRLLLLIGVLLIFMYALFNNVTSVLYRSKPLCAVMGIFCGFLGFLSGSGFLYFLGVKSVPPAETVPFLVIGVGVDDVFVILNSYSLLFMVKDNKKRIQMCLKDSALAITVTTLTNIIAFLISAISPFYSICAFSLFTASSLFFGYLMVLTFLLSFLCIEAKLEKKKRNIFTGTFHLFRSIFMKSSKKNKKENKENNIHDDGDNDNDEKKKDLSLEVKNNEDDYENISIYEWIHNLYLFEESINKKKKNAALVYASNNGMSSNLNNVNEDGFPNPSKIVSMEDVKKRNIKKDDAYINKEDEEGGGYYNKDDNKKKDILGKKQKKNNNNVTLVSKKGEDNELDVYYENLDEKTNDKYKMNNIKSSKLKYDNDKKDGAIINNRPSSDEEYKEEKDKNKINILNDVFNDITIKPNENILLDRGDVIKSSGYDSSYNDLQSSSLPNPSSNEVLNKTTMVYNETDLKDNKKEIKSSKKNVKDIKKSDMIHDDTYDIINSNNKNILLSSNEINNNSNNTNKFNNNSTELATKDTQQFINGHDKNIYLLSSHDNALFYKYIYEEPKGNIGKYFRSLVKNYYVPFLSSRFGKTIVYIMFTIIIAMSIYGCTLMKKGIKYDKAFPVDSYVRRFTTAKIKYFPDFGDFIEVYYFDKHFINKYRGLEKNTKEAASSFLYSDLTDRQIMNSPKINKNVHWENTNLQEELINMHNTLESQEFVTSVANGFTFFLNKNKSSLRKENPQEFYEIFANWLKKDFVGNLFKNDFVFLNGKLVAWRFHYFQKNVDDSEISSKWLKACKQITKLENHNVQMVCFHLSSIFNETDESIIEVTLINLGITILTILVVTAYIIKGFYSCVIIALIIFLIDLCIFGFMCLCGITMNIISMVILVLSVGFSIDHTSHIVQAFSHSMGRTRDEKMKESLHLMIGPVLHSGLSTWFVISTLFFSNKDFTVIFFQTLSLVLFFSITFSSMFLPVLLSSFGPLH

UniProt Q8I487 = target: UniProt Q8I487
UniProt Q8I4W4 = target: UniProt Q8I4W4
UniProt Q8I4Z4 = target: UniProt Q8I4Z4
UniProt Q8I5H4 = target: UniProt Q8I5H4
UniProt Q8IAU3 = target: UniProt Q8IAU3
UniProt Q8IAV6 = target: UniProt Q8IAV6
UniProt Q8IB44 = target: UniProt Q8IB44
UniProt Q8IBT2 = target: UniProt Q8IBT2
UniProt Q8ID72 = target: UniProt Q8ID72
UniProt Q8IDM2 = target: UniProt Q8IDM2
UniProt Q8IDT0 = target: UniProt Q8IDT0
UniProt Q8IDV2 = target: UniProt Q8IDV2
UniProt Q8IDV5 = target: UniProt Q8IDV5
UniProt Q8IE09 = target: UniProt Q8IE09
UniProt Q8IE41 = target: UniProt Q8IE41
UniProt Q8IE50 = target: UniProt Q8IE50
UniProt Q8IFM9 = target: UniProt Q8IFM9
UniProt Q8IFP2 = target: UniProt Q8IFP2
UniProt Q8IHN4 = target: UniProt Q8IHN4
UniProt Q8II73 = target: UniProt Q8II73
UniProt Q8IIE7 = target: UniProt Q8IIE7
UniProt Q8III6 = target: UniProt Q8III6
UniProt Q8IIJ9 = target: UniProt Q8IIJ9
Chain of UniProt Q8IIJ9 (Q8IIJ9 whole entry): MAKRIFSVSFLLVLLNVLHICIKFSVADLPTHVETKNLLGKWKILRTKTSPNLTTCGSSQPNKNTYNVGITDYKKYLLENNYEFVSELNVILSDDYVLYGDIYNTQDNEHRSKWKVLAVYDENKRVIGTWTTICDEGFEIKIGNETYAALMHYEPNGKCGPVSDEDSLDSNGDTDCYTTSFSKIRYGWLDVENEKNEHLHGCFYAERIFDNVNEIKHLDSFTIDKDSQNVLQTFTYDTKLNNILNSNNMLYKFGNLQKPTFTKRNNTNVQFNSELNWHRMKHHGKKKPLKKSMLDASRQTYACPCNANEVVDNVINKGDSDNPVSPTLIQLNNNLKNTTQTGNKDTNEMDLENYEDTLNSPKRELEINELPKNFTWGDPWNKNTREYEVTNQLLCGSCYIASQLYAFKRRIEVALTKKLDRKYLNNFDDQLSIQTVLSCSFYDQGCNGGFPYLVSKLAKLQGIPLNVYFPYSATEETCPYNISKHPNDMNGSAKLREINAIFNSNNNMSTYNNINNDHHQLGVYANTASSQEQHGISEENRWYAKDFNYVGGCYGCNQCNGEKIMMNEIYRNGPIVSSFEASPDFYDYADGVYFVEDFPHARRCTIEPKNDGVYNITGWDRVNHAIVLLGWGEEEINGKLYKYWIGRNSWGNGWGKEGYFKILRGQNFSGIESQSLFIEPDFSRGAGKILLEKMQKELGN

UniProt Q8IIL5 = target: UniProt Q8IIL5
UniProt Q8IJ37 = target: UniProt Q8IJ37
UniProt Q8IJJ0 = target: UniProt Q8IJJ0
UniProt Q8IJQ1 = target: UniProt Q8IJQ1
UniProt Q8IKK4 = target: UniProt Q8IKK4
UniProt Q8IKK7 = target: UniProt Q8IKK7
UniProt Q8IKN7 = target: UniProt Q8IKN7
UniProt Q8IKS6 = target: UniProt Q8IKS6
UniProt Q8IL94 = target: UniProt Q8IL94
UniProt Q8ILA4 = target: UniProt Q8ILA4
UniProt Q8ILK2 = target: UniProt Q8ILK2
UniProt Q8ILT5 = target: UniProt Q8ILT5
Chain of UniProt Q8ILT5 (Q8ILT5 whole entry): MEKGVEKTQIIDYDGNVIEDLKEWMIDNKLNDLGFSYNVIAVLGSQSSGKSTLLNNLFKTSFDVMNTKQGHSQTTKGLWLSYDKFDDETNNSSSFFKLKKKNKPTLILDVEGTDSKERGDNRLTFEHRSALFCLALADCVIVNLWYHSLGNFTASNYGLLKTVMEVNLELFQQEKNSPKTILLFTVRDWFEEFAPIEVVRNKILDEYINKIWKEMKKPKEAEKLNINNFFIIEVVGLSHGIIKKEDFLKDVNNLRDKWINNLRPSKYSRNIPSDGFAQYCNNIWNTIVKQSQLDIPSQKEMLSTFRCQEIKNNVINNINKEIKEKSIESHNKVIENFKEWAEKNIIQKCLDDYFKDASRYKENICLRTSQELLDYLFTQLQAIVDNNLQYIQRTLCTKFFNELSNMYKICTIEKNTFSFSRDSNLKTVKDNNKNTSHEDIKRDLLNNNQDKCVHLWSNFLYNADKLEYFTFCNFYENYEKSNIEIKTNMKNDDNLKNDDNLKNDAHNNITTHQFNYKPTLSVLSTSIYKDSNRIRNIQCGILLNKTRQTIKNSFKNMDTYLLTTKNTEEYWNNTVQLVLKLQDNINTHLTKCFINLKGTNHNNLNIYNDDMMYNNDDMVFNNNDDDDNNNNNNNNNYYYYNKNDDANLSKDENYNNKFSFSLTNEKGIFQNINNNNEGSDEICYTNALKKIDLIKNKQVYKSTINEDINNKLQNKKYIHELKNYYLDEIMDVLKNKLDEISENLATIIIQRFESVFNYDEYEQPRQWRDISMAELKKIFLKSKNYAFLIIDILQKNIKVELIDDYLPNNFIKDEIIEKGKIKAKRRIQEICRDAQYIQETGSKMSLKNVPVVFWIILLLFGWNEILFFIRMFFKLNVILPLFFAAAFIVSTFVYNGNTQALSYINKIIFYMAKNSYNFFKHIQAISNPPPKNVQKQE
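Further: native unpurified kinases from lysate captured on beads bearing immobilized kinase inhibitors, with bead-bound kinases quantified by mass spectrometry across compound doses.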

O=c1[nH]c2ccc(Cl)cc2c(NC2CN3CCC2CC3)c1-c1nc2ccccc2[nH]1 (stereo unspecified) [CHIR-124]
IC50 (A0A146LZZ4): > 20 µM | IC50 (UniProt C0H4K8): > 20 µM | IC50 (UniProt C0H4S5): > 20 µM | IC50 (UniProt C0H4S8): > 20 µM | IC50 (UniProt C0H5J6): > 20 µM | IC50 (UniProt C6KSR5): > 20 µM | IC50 (UniProt C6KSY6): > 20 µM | IC50 (UniProt C6KTA4): > 20 µM | IC50 (UniProt O77361): > 20 µM | IC50 (UniProt O77390): > 20 µM | IC50 (UniProt O96278): > 20 µM | IC50 (UniProt P27362): > 20 µM | IC50 (UniProt Q76NM6): > 20 µM | IC50 (UniProt Q7KQL9): > 20 µM | IC50 (UniProt Q8I249): > 20 µM | IC50 (UniProt Q8I266): > 20 µM | IC50 (UniProt Q8I487): > 20 µM | IC50 (UniProt Q8I4W4): > 20 µM | IC50 (UniProt Q8I4Z4): > 20 µM | IC50 (UniProt Q8I5H4): > 20 µM | IC50 (UniProt Q8IAU3): > 20 µM | IC50 (UniProt Q8IAV6): > 20 µM | IC50 (UniProt Q8IB44): > 20 µM | IC50 (UniProt Q8IBT2): > 20 µM | IC50 (UniProt Q8ID72): > 20 µM | IC50 (UniProt Q8IDM2): > 20 µM | IC50 (UniProt Q8IDT0): > 20 µM | IC50 (UniProt Q8IDV2): > 20 µM | IC50 (UniProt Q8IDV5): > 20 µM | IC50 (UniProt Q8IE09): > 20 µM | IC50 (UniProt Q8IE41): 0.375 µM | IC50 (UniProt Q8IE50): > 20 µM | IC50 (UniProt Q8IFM9): > 20 µM | IC50 (UniProt Q8IFP2): > 20 µM | IC50 (UniProt Q8IHN4): > 20 µM | IC50 (UniProt Q8II73): > 20 µM | IC50 (UniProt Q8IIE7): 0.177 µM | IC50 (UniProt Q8III6): > 20 µM | IC50 (UniProt Q8IIJ9): > 20 µM | IC50 (UniProt Q8IIL5): > 20 µM | IC50 (UniProt Q8IJ37): > 20 µM | IC50 (UniProt Q8IJJ0): > 20 µM | IC50 (UniProt Q8IJQ1): > 20 µM | IC50 (UniProt Q8IKK4): > 20 µM | IC50 (UniProt Q8IKK7): > 20 µM | IC50 (UniProt Q8IKN7): > 20 µM | IC50 (UniProt Q8IKS6): > 20 µM | IC50 (UniProt Q8IL94): > 20 µM | IC50 (UniProt Q8ILA4): > 20 µM | IC50 (UniProt Q8ILK2): > 20 µM | IC50 (UniProt Q8ILT5): > 20 µM
